# According to patent US11013249B2, “Compositions for controlled release of volatile compounds” (University of Guelph, priority 2016, dated 2021):
# Several values for one entry are separate records, joined by “and”; a condition that tells them apart may be missing. Identical values can stand only once. Like-named read-outs stand apart in the source and are kept apart here.
# Tests used:
# [1] = Release of diacetyl and AITC vapours from PEG blends into jar headspace (automatic headspace sampling, GC); format: physicochemical; conditions: from 4:1 PEG400:PEG10K
# Description: PEG400 and PEG10K were blended at 1:4, 2:3, 3:2 and 4:1 (w/w) ratios. All PEG blends (20±1 g) were heated to 90° C. in a 20 mL glass vial for 20 min to ensure the polymers were melted and thoroughly mixed with the aid of a magnetic stir bar. […] The vials were capped, kept in a 75° C. oven and continuously being stirred with the magnetic stir bar for 15 min. The molten mixtures were injected into a mould fabricated from glass (2 cm×1.5 cm×0.1 cm) and allowed to set. One face of the mould was lined with aluminum tape (adhesive side facing away from PEG), which acted as a baking material for the solidified PEG. Upon solidification, diacetyl/AITC impregnated PEG sheeting was formed.
# With the aid of a controller (SRI Instruments Inc., Las Vegas, Nev., USA), the headspace air in the glass jar was sampled automatically by means of a vacuum pump and two stream selection valves (Model EMTCA-CE, VICI Valco Instruments Co. Inc., Houston, Texax, USA), and injected into a gas chromatograph equipped with flame ionization detector (GC 6890, Agilent Technologies Inc., Santa Clara, Calif., USA.). Both the detector and oven temperatures were set at 150° C. The flow rates of the carrier gas (N2), compressed air and hydrogen were 30 mL/min, 200 mL/min and 30 mL/min, respectively. Retention time and peak area were analyzed by using chromatographic software (Peak Simple 393-32 bit, SRI Instruments, Torrance, Calif., USA). After each sampling, an equal amount of dry air was injected back into the jar to maintain the interior pressure at one atmosphere.
# Diacetyl or AITC release profiles were generated by plotting Mn versus time.
# The release profiles of the antimicrobial compounds were fitted in a model which combines first order kinetics and zero order kinetics: C=Ce×(1−e^−kt)+αt (Eq. 3) where C is the compound concentration at time t; Ce is the equilibrium concentration for diffusion; k is the diffusion rate constant; α is the rate of zero order kinetics. Models are fitted to the data before reaching the equilibrium.
# [2] = system: Yeast; test: Inhibitory effects of AITC, diacetyl and cinnamaldehyde vapour; format: cell-based, yeast isolated from mung bean sprouts
# Description: (§1) P. fluorescens was selected as a model spoilage bacteria, while mould and yeast were isolated from spoiled mung bean sprouts with bacteria excluded by cultivating in potato dextrose broth (PDB) (Sigma, Oakville, ON, Canada) at pH 5.6±0.2. Yeast and P. fluorescens stocks were cultivated in PDB and trypticase soy broth (TSB) (Bacto, BD, Sparks, USA), respectively, at 30° C. for 24 h and diluted with sterile saline solution (NaCl, 8.5 g/L water) to a concentration of 10^6 CFU/mL. An aliquot of 50 μL of the prepared yeast or bacteria suspension was spread on potato dextrose agar (PDA) (Difco, BD, Sparks, USA) or trypticase soy agar (TSA) (Bacto, BD, Sparks, USA), respectively, in 5 cm diameter petri dishes (Fisher Scientific, Ottawa, ON, Canada). Mycelium of mould was inoculated as one spot at the center of the PDA dishes. Two freshly inoculated petri dishes of same microorganism, with their lids removed, were placed in a one-liter glass jar. […] The growth of the microorganisms was monitored by the colony formation for 3 days.
# [3] = system: Mould; test: as above; format: cell-based, mould isolated from mung bean sprouts; conditions: vapour in one-liter jar; 25° C.
# Description: as §1
# [4] = system: P. Fluorescens; test: as above; format: cell-based, Pseudomonas fluorescens P33; conditions: 25° C.
# Description: as §1
# [5] = cited from earlier work
# [6] = Amount 0.1 mg in one-liter jar, 25° C.
smiles,measurement,setting,value
"C=CCN=C=S [AITC, Allyl isothiocyanate]",Ce,"[1]; 0 μL water, 5° C.",0.0212 mg/L
same,k,"[1]; 0 μL water, 5° C.",0.0149 h⁻¹
same,α,"[1]; 0 μL water, 5° C.",3.39e-06 h⁻¹
same,Ce,"[1]; 0 μL water, 25° C.",0.0791 mg/L
same,k,"[1]; 0 μL water, 25° C.",0.016 h⁻¹ and 0.01604 h⁻¹
same,α,"[1]; 0 μL water, 25° C.",1.94e-05 h⁻¹
same,maximum released after 42 h,[1]; 5° C.,0.14 mg
same,Ce,"[1]; 10 μL water, 5° C.",0.0245 mg/L
same,k,"[1]; 10 μL water, 5° C.",0.01509 h⁻¹
same,α,"[1]; 10 μL water, 5° C.",3.63e-06 h⁻¹
same,Ce,"[1]; 10 μL water, 25° C.",0.1012 mg/L
same,k,"[1]; 10 μL water, 25° C.",0.01169 h⁻¹
same,α,"[1]; 10 μL water, 25° C.",1.76e-05 h⁻¹
same,maximum released after 42 h,[1]; 25° C.,0.47 mg
same,maximum release within 42 h,"[1]; 25° C., 10 μL water",0.15 mg
same,maximum release within 42 h,"[1]; 25° C., 100 μL water",0.18 mg
same,maximum release within 42 h,"[1]; 25° C., 1000 μL water",0.48 mg
same,maximum release within 42 h,"[1]; 25° C., dry condition",0.13 mg
same,Ce,"[1]; 100 μL water, 5° C.",0.0353 mg/L
same,k,"[1]; 100 μL water, 5° C.",0.01022 h⁻¹
same,α,"[1]; 100 μL water, 5° C.",1.09e-05 h⁻¹
same,Ce,"[1]; 100 μL water, 25° C.",0.1523 mg/L
same,k,"[1]; 100 μL water, 25° C.",0.00896 h⁻¹
same,α,"[1]; 100 μL water, 25° C.",1.25e-05 h⁻¹
same,Ce,"[1]; 1000 μL water, 5° C.",0.0454 mg/L
same,k,"[1]; 1000 μL water, 5° C.",0.00564 h⁻¹
same,α,"[1]; 1000 μL water, 5° C.",3.75e-05 h⁻¹
same,Ce,"[1]; 1000 μL water, 25° C.",0.1365 mg/L
same,k,"[1]; 1000 μL water, 25° C.",0.009 h⁻¹ and 0.00945 h⁻¹
same,time of reaching equilibrium of release,"[1]; 1000 μL water, 25° C.",around 1300 min
same,α,"[1]; 1000 μL water, 25° C.",0.00029 h⁻¹ and 0.000291 h⁻¹
same,"Yeast day1, visual colony number",[2]; [6],+ (less than 15)
same,"Yeast day2, visual colony number",[2]; [6],+ (less than 15)
same,"Yeast day3, visual colony number",[2]; [6],+ (less than 15)
same,MIC,[2]; read-out: minimum inhibition concentration (MIC),0.5 µg/mL
same,effective concentration against yeast,"[2]; vapour in one-liter jar, 25° C.",0.5 mg/L
same,concentration that inhibited the growth of mould for three days,[3],0.1 mg/L
same,"P. Fluorescens day1, visual colony number",[4]; Amount 0.1 mg in one-liter jar,++ (15-50)
same,"P. Fluorescens day2, visual colony number",[4]; Amount 0.1 mg in one-liter jar,++ (15-50)
same,"P. Fluorescens day1, visual colony number",[4]; Amount 0.5 mg in one-liter jar,+ (less than 15)
same,"P. Fluorescens day2, visual colony number",[4]; Amount 0.5 mg in one-liter jar,+ (less than 15)
same,effective concentration against P. fluorescens,[4]; vapour in one-liter jar,1 mg/L
same,Saturated vapor pressure,[5]; 5° C.,~140 Pa
same,vapor pressure (volatility),[5]; 20° C.,0.49 kPa
same,Saturated vapor pressure,[5]; 45° C.,~1500 Pa
